Source: US11033568B2, “Nicotinamide riboside compositions for topical use in treating skin conditions” (ChromaDex Inc., priority 2013, dated 2021)

Tests used:
[1] = system: A431 human epidermoid cells; experiment: Oxidative damage protection assay (1 mM H2O2, alamar blue cell viability); type: cell-based; settings: for percent cytoprotection: 1 mM H2O2, vs positive (H2O2) control
Protocol: A431 human epidermoid cells (ATCC #CRL1555) were grown in DMEM media supplemented with 10% FBS and 1% PenStrep in T75 flasks based on culture recommendations. The media was replaced every two-three days till >80% confluency was attained. The cells were trypsinized with 0.25% trypsin EDTA solution for 2-3 minutes until the cells were dislodged. The cells were sub-cultured in a ratio of 1:3 for further growth and scale-up for the assay. The cells were trypsinized and counted to a density of 5,000 or 15,000 cells and seeded in […], media/well in 96-well clear bottom black plates. The outer wells at the periphery of the plates were left unseeded and were instead filled with media to reduce the edge effect during incubation. The plates were incubated overnight in a humidified incubator at 37° C./5% CO2 to confirm that the cells were attached. The Nicotinamide Riboside chloride (NR chloride) was added at indicated final assay concentrations in the media either under pre-treatment for 24 h (without hydrogen peroxide) or along with 1 mM hydrogen peroxide for an incubation of 20 h in a humidified incubator at 37° C./5% CO2 either with media replenishment at 8 h or under growth synchronized conditions using 1% FBS. Each concentration was tested in 6 replicates. Appropriate controls: cells without compound and hydrogen peroxide (no cytotoxicity; negative control), cells without compound but in the presence of 1 mM hydrogen peroxide (positive control), wells with alamar blue alone (blank) were kept in each assay. Cell viability was graphed and data was represented as percent cytotoxicity for 1 mM H2O2 under a given assay condition with respect to negative (untreated control) cells or percent cytoprotection in the presence of the test compound calculated with respect to positive (1 mM H2O2) control.

A431 cell line = experiment: UV-C damage assay, cyclobutane pyrimidine dimer (CPD) ELISA; type: cell-based, human; settings: for cyclobutane pyrimidine dimer (CPD) level vs. control: 2 h pre-treatment, 10 J/m^2 UVC
Protocol: The A431 cell line was seeded in 6-wells plate at a seeding density of 4×10^5 cells/well in 2 ml of culture media containing 10% FBS. The cells were left untreated as a control or treated with different concentrations of NR chloride in the media (5 mM and 1 mM) for 2 h under a fully humidified atmosphere containing 5% CO2 at 37° C. After incubation, culture media was replaced by PBS and cells were exposed to 10 J/m^2 UVC irradiation. Plates were harvested along with respective controls immediately after UVC exposure (Negative Control was cells without UV-C exposure while Positive Control was untreated Cells with UV-C exposure). DNA from cells in each condition was extracted and quantified by NanoDrop. DNA samples were then added in the ELISA plate at 100 ng/well conc. and amount of cyclobutane pyrimidine dimer (CPD) was estimated in the DNA samples using CPD-DNA estimation kits (OxiSelect™, Cell Biolabs, Inc., San Diego, USA) as per manufacturer's protocol.

NIH 3T3 fibroblasts = experiment: Scratch wound healing assay (CytoSelect Wound Healing Assay Kit); type: cell-based, mouse
Protocol: NIH 3T3 fibroblasts were obtained from […]) and cultured in Dulbecco's modified Eagle's medium (DMEM) supplemented with 10% fetal bovine serum (FBS), 4 mM L-glutamine, 1% penicillin/streptomycin under a fully humidified atmosphere containing 5% CO2 at 37° C. For experiments, cells were collected from subconfluent monolayers with trypsin/EDTA. Cell viability was higher as 95% using trypan blue dye exclusion staining. The study was carried out using cells from passages 4-7 in DMEM medium containing 1% FBS. Untreated cells (1% FBS) were used as negative controls. The effect of nicotinamide riboside chloride (NR chloride) on wound closure in NIH 3T3 fibroblasts was investigated. Cell viability was determined by cell titer blue (Promega), wound closure by CytoSelectTM Wound Healing Assay Kit (Cell Biolabs, Inc., San Diego, USA). All conditions were performed in three independent, controlled experiments. […] Microscopic imaging of wound closure was analyzed using “Image J” software. […] Apart from microscopic observations, data was analyzed for the determination of total surface area of the defined wound area using “Image J” software. Surface area of the migrated cells into the wound area was calculated by subtracting surface area after 24 hour from total surface area of the wound at “0” hour. […]

[2] = cited from earlier work

Structure (SMILES) | percent cytoprotection ([1]; 0.04 mM, normal growth (10% FBS)) | percent cytoprotection ([1]; 0.2 mM, growth synchronized (1% FBS)) | percent cytoprotection ([1]; 0.2 mM, normal growth (10% FBS)) | percent cytoprotection ([1]; 1 mM, growth synchronized (1% FBS)) | percent cytoprotection ([1]; 1 mM, normal growth (10% FBS)) | percent cytoprotection ([1]; 5 mM, growth synchronized (1% FBS)) | reduction of oxidative damage-mediated cell death ([1]; expected) | reduction of oxidative damage-mediated cell death ([1]; summary over conditions, even in growth arrested condition) | cyclobutane pyrimidine dimer (CPD) level vs. control (A431 cell line; +1 mM, 1.2 μg/ml DNA control) | cyclobutane pyrimidine dimer (CPD) level vs. control (A431 cell line; +1 mM, 2.1 μg/ml DNA control) | cyclobutane pyrimidine dimer (CPD) level vs. control (A431 cell line; +5 mM, 1.2 μg/ml DNA control) | cyclobutane pyrimidine dimer (CPD) level vs. control (A431 cell line; +5 mM, 2.1 μg/ml DNA control) | reduction of levels of CPDs (A431 cell line; expected) | gap closure (NIH 3T3 fibroblasts; 0.2 mM + 1% FBS) | gap closure (NIH 3T3 fibroblasts; 1 mM + 1% FBS, 24 hour incubation) | half life t1/2 ([2]; in blood) | oral bioavailability ([2]; in vivo, po)
NC(=O)c1ccc[n+]([C@@H]2O[C@H](CO)[C@@H](O)[C@H]2O)c1 [NR chloride, Nicotinamide Riboside chloride] | −1% | 2% | 8% | 15% | 23% | 38% | at least 10% | 10-40% | −32% | −41% | −34% | −50% | at least 10% | 13% | 46% |  | 
COc1cc(/C=C/c2ccc(O)cc2)cc(OC)c1 [pterostilbene, 3,5-dimethoxy-4′-hydroxy-trans-stilbene] |  |  |  |  |  |  |  |  |  |  |  |  |  |  |  | about 105 minutes | orally bioavailable
